{"source": "paper PMC3812159", "about": "“A Comparative Analysis of the Ubiquitination Kinetics of Multiple Degrons to Identify an Ideal Targeting Sequence for a Proteasome Reporter” (PLoS ONE, 2013)", "key": {"Hdm2": {"target": "T1, Hdm2 (Homo sapiens, UniProt Q00987)", "T1 construct": "purchased Enzo Life Sciences", "T1 sequence (Q00987 whole entry)": "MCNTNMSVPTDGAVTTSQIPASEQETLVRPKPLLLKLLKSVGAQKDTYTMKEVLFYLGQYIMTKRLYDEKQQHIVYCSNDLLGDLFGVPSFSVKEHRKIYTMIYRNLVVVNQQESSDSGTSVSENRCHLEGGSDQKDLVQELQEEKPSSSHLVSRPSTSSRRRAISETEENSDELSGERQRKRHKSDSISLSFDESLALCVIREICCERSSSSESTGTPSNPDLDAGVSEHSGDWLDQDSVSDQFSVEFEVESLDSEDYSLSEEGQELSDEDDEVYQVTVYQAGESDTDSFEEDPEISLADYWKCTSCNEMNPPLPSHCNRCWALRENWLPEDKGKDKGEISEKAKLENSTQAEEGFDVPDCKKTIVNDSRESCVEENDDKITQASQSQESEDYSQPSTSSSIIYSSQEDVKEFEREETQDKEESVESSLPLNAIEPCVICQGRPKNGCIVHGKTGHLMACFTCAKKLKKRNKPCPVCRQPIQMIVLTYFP", "assay": "Cell-free ubiquitination assay", "assay_type": "biochemical", "settings": "1 µM Hdm2, 1 µM Ube1, 10 µM UbcH5b, 10 µM peptide, wild type ubiquitin, 2 hours at 30°C", "procedure": "Samples were run on gels and imaged as described above.\nFigure 5 Variations in E3 ligase activity result in fluxuations in degron-based substrate ubiquitination. (A) To evaluate the impact of different levels of E3 ligase activity, the four top performing degron-based substrates (β-Catenin, Bonger, iNOS, and p53) were incubated in lysates from four different cell lines (HeLa, U937, THP-1, and HL60) in the ubiquitin pull down assay. Further, the assay was supplemented with wild type ubiquitin to examine polyubiquitin chain formation. All reaction mixtures were incubated for 2 hours at 37°C prior to continuation with the pull down assay. (B) The effects of a NEDD8 inhibitor (MLN-4924) and an E1 inhibitor (PYR-41) were examined on the TAZ-based substrate (a target of the SCF^βTrCP E3 ligase). The ubiquitin pull down was performed as previously described with the reactions incubated for 2 hours with the listed inhibitor concentrations at 37°C prior to continuation with the pull down assay. (C) A cell-free ubiquitination assay was performed on the p53-based substrate using an enzymatic cascade culminating with 1 µM Hdm2 and supplemented with wild type ubiquitin. Lane 1 contains all assay components, lane 2–4 were control experiments removing a member of the E1–E3 enzymatic cascade. […]"}, "[1]": {"tested_on": "HeLa S100 cytosolic lysates as the source of E1, E2, and E3 enzymes", "assay": "Ubiquitin pull down assay with methylated ubiquitin, multi-monoubiquitination kinetic model", "assay_type": "biochemical", "settings": "ratio of fitted rate constants, >1 favours ubiquitination, <1 degradation", "from_the_text": "A second model based on substrate multi-monoubiquitination was developed and evaluated. This model assumed that the generation of di-, tri-, and tetra-ubiquitinated species was the result of multiple methylated ubiquitins being conjugated to the multiple available lysines found on the degron-based substrate (Figure 3a). As opposed to the polyubiquitination model, the multi-monoubiquitination model accurately fit the data for all eight degron-based substrates (Figure 3b–d, Figure S4 in File S1, Table 2). Using this model, kinetic rate constants for all ubiquitination (k1 for mono-, k2 for di-, k3 for tri-, and k4 for tetra-) and peptidase-dependent degradation steps (Table 2) were calculated. The multi-monoubiquitination model nicely corresponded to the observed results in Figure 2. […] The model also captured the preference for di-ubiquitination of the Cyclin D1 degron (k2 is two-fold greater than k1) and the equal preference of mono- and di-ubiquitination states found in the HIF-1α degron (k1 of 2.6 and k2 of 3.0). Further, the similar behavior and observed kinetics for IFNAR and TAZ degrons were mostly likely due to the fact that these degrons are recognized by the same E3 ligase, SCF^βTrCP (Table 1). To test the robustness of the multi-monoubiquitination model, a ninth substrate based on the degron from the protein β-Catenin was assessed. This substrate was selected because it is ubiquitinated by the same E3 ligase as TAZ and IFNAR1, SCF^βTrCP. The model accurately fit the data for the multi-monoubiquitination of the β-Catenin degron-based substrate with similar rate constants compared to the TAZ and IFNAR1-based substrates (Table 2). Finally, it was important to assess the validity of the model by addressing the relative goodness of fit between the experimental data and the model predictions as determined from the multi-monoubiquitination model. For this particular analysis it was decided to calculate the sample Pearson correlation coefficient (Eq. S10 in File S1), a widely used metric to measure the dependence between two variables. A correlation coefficient was calculated between the model predictions and experimental data for mono-, di-, tri-, and tetra-ubiquitinated substrate for all nine degron-based substrates (Table S1 in File S1). As per convention, a positive value approaching 1 corresponds to a very good fit, which is observed for all nine substrates indicating a good fit between model and data."}, "[2]": {"tested_on": "endogenous proteases and peptidases found in the S100 lysates", "description": "The in vitro ubiquitination assay was carried out at the indicated times at 37°C in a total reaction volume of 25 µL containing assay buffer (10 mM Tris-HCl pH 7.6 and 5 mM MgCl2) with 2 mM DTT, 20 µg/mL ubiquitin aldehyde (Boston Biochem), 400 µg/mL methylated ubiquitin (Enzo Life Sciences), 1×ATP energy regenerating solution (ATP-ERS, Boston Biochem), 100 µM of the proteasome inhibitor MG-132 (EMD Chemicals), 2 mg/mL HeLa S100 cytosolic lysates as the source of E1, E2, and E3 enzymes, 750 ng of indicated peptide substrate, and inhibitors Complete ULTRA and PhosSTOP (Roche). Reactions were halted by addition of 2× tricine sample buffer (Bio-Rad) and subsequent boiling. Samples were loaded onto SDS page gels (precast 16.5% Mini PROTEAN Tris-Tricine, Bio-Rad) using 1× tris-tricine running buffer and visualized with a Typhoon Imager (GE Healthcare Life Sciences). Gels were quantified using ImageJ (US National Institute of Health) by comparing sample intensity to unreacted parent peptide intensity, which is not depicted in the gels.\nUbiquitin pull down assays were performed similarly to the in vitro ubiquitination assay as described above, with the exception of a total volume of 100 µL and 4.2 µg of peptide substrate. At the end of the indicated times, samples were incubated with Control-Agarose beads (LifeSensors), diluted in TBS-T buffer (20 mM Tris-HCl pH 8.0, 150 mM NaCl, and 0.1% v/v Tween-20), for 60 min on a tube rotator at 4°C. Samples were subsequently centrifuged at 1800×g for 5 min to pellet and remove control beads. The supernatant was transferred to solution of Agarose-TUBES1 (LifeSensors) diluted in TBS-T and incubated overnight on a tube rotator at 4°C. Ubiquitin-bound beads were washed 5× with TBS-T and then the samples were eluted off of the bead with 2× tricine sample buffer, boiled for 5 min, and then isolated by centrifugation for 5 min at 13000×g. Samples were loaded onto an SDS PAGE gel, electrophoresed, visualized and quantified as described above.\nThe series of ordinary differential equations were solved in MATLAB using ODE15s and the boundary conditions defined in equations S1–S6. Kinetic rate constants were determined using a Markov Chain Monte Carlo (MCMC) algorithm in MATLAB by minimizing the cumulative sum of the squared deviations (cSSD), as defined by equations S8–S9, between the calculated and experimental data similar to previous work by Cirit et. al. [23].\nTo accomplish this objective, a kinetic model was developed to describe the step-wise ubiquitination of the degron-based substrates. The goal of this model was to both determine the reaction kinetics for ubiquitin transfer to the degron-based substrates and distinguish polyubiquitination from multi-monoubiquitination. […] Each step in the reaction was described by a corresponding rate constant (k1–k9). Due to the presence of the deubiquitinating enzyme (DUB) inhibitor ubiquitin aldehyde, substrate deubiquitination was neglected. Further, the proteasome inhibitor MG-132 was added at an appropriate amount to neglect proteasome-mediated degradation of the substrates."}, "SCF^βTrCP": {"tested_on": "SCF^βTrCP", "settings": "published substrate; optimized test tube reaction with excess E1, E2, and E3 ligases, no competing peptidases; cited from earlier work", "from_the_text": "While there exist kinetic studies of specific E3 ligases, [47], [48] and individual degrons there has not been a comprehensive analysis of ubiquitination kinetics of multiple degrons in a single study. The presented work allowed for the calculation of rate constants for multiple degrons in a single cell line, effectively comparing the ubiquitination kinetics of different E3 ligase targets."}}, "data": [{"molecule": "CN(C)CCCNc1c2c(=O)n(C)c(=O)nc-2n(C)c2ccccc12", "note": "[HLI-373]", "values": [{"measurement": "effect of inhibitor on Hdm2-dependent ubiquitination of the p53-based substrate", "setting": "Hdm2; inhibitor 1, 10 µM", "result": "No decrease"}]}, {"molecule": "Cc1ccc2ccc(C(Nc3ccccc3)c3ccccc3)c(O)c2n1", "note": "(centres unmarked) [NSC-66811]", "values": [{"measurement": "effect of inhibitor on Hdm2-dependent ubiquitination of the p53-based substrate", "setting": "Hdm2; inhibitor 1 µM dose", "result": "pronounced decrease"}]}, {"molecule": "KAWQQQSYLDSGIHSGATTTAPK(FAM)KKK [β-Catenin, fluorescein-tagged degron-based peptide substrate from β-Catenin, E3 ligase SCF^βTrCP]", "values": [{"measurement": "k1/k5, mono-ubiquitination vs. degradation of unmodified substrate", "setting": "[1]", "result": 1.55}, {"measurement": "k6, rate constant for peptidase-dependent degradation of mono-ubiquitinated substrate", "setting": "[2]", "result": "0.1 (1/min)*10^3"}, {"measurement": "k7, rate constant for peptidase-dependent degradation of di-ubiquitinated substrate", "setting": "[2]", "result": "0.1 (1/min)*10^3"}, {"measurement": "k8, rate constant for peptidase-dependent degradation of tri-ubiquitinated substrate", "setting": "[2]", "result": "1.0 (1/min)*10^3"}, {"measurement": "k9, rate constant for peptidase-dependent degradation of tetra-ubiquitinated substrate", "setting": "[2]", "result": "3.0 (1/min)*10^3"}, {"measurement": "rate constant for β-Catenin ubiquitination previously reported", "setting": "SCF^βTrCP", "result": 0.28, "unit": "min⁻¹"}]}]}
